Experiment [1] deals with T1, EP3 receptor (Homo sapiens, UniProt P43115).
T1 sequence (P43115 1-390): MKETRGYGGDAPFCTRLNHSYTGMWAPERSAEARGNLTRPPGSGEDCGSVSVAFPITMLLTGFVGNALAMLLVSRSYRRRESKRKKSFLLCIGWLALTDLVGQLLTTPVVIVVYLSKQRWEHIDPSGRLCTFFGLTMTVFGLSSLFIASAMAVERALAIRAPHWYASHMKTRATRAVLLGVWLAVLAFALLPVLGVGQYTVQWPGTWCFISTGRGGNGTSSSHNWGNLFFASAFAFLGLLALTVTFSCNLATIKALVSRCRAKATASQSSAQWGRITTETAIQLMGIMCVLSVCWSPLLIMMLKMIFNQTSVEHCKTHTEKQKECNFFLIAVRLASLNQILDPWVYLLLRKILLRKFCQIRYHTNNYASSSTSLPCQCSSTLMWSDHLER
The experiment can be described thus: CHO cell cAMP assay (forskolin and sulprostone stimulated, HTRF detection). The format is cell-based. The settings on record: sulprostone 700 nM (EC80) and FSK 2 μM (EC70); read-out: CHO_cAMP IC50. Background: cAMP levels reflect the balance of adenylyl cyclase and phosphodiesterase activity.

Experiment [2] concerns male Sprague Dawley rats. The experiment can be described thus: IV infused EP3 antagonists on circulating insulin and glucose in the sulprostone infusion IVGTT model. The format is in vivo, rat. The settings on record: IV bolus plus infusion at 7×Ki and 10×Ki (targeted), with 3 μg/kg/min sulprostone, SD rats. An excerpt: IV Infused EP3 Antagonists on Circulating Insulin and Glucose in the Sulprostone Infusion IVGTT Model
Jugular vein and carotid artery cannulated male Sprague Dawley rats (˜250 g, available from Charles River) were housed one rat per suspended cage in a temperature-controlled room with 12-hour light/dark cycle. The rats were allowed ad libitum access to water and maintained on a regular diet. Animals were acclimated for minimum 5 days prior to the start of the experiment. Experimental procedures were carried out in accordance with institutional standards for animal care and were approved by the institute's animal care and use committee.
A blood sample for insulin and blood chemistry was collected at 20 min (t=−20) prior to the start of dosing with sulprostone and/or test compound (EP3 antagonist). […]
Blood samples from all animals were collected into Heparin treated tubes. Background was measured via a glucometer at the 0 and 2 min time points to ensure that the animal received the glucose bolus. Plasma insulin was measured via a Meso Scale Discovery metabolic assay (available from Meso Scale). Plasma glucose, free fatty acid (FFA), triglycerides, cholesterol and ketones were measured on an OLYMPUS AU400E chemistry analyzer. Observations on animal health were recorded throughout the procedure. […]

Experiment [3] deals with T2, mEP3 (Mus musculus, UniProt P30557).
T2 sequence (P30557 1-365): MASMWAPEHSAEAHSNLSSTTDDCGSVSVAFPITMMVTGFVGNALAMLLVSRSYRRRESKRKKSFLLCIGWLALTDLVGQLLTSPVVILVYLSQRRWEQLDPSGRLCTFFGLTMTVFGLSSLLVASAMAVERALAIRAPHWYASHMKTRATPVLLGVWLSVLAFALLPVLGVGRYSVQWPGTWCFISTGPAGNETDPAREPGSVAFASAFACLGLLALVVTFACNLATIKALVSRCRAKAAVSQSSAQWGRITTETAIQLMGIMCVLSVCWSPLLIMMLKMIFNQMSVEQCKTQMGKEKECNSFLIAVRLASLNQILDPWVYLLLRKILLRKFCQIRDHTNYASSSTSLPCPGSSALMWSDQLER
Put plainly: mEP3 Ki used for dose targeting in the IVGTT model. The format is binding.

For experiment [4], the target named is T1, EP3 receptor. The experiment can be described thus: [3H]-PGE2 binding assay (EP3 competition binding, SPA beads).

The record followed here is patent US10399944B2, “Pyridin-2-one derivatives of formula (III) useful as EP3 receptor antagonists” (Janssen Pharmaceutica NV, priority 2017, dated 2019).

Broadly, the IC50 is the concentration that gives 50% inhibition. A word on the Ki: it is a dissociation constant, usually derived from enzyme kinetics or from competition with a known ligand. The low end stands for a stronger hold on the target, the high end for a looser hold on the target.

Each structure is given as a SMILES string.

`CC(C)(C)C(/C=C1/OC(=O)NC1=O)C1C=CC(c2ccc3cccc(F)c3c2)=NC1=O` (mixture of isomers) [compound 275, (E)-5-(2-(6-(8-fluoronaphthalen-2-yl)-2-oxo-2,3-dihydropyridin-3-yl)-3,3-dimethylbutylidene)oxazolidine-2,4-dione]: the half-maximal inhibitory concentration (IC50) in experiment [1] was more than 20000 nM. As to `CC(C)C(/C=C1\OC(=O)NC1=O)c1ccc(-c2ccc3cccc(F)c3c2)[nH]c1=O` (racemic) [Compound #62, (Z)-5-(2-(6-(8-fluoronaphthalen-2-yl)-2-oxo-1,2-dihydropyridin-3-yl)-3-methylbutylidene)oxazolidine-2,4-dione], in experiment [2], the “suppression of glucose stimulate insulin secretion (GSIS) by sulprostone” value is “reverse suppression of glucose stimulate insulin secretion (GSIS) by sulprostone”. The inhibitory constant (Ki) in experiment [3] was determined as 8.6 nM. Consider `CC(C)C(/C=C1\OC(=O)NC1=O)c1ccc(-c2ccc3c(c2)OCCO3)[nH]c1=O` (racemic) [Compound #85, (Z)-5-(2-(6-(2,3-dihydrobenzo[b][1,4]dioxin-6-yl)-2-oxo-2,3-dihydropyridin-3-yl)-3-methylbutylidene)oxazolidine-2,4-dione], for which the Ki in experiment [4] came to 44 nM. In experiment [1], the IC50 turned out to be 122 nM.

In turn, `CCn1ncc2c(F)cc(-c3ccc(C(/C=C4\OC(=O)NC4=O)C(C)C)c(=O)[nH]3)cc21` (racemic) [Compound #94, 5-(2-(6-(1-ethyl-4-fluoro-1H-indazol-6-yl)-2-oxo-1,2-dihydropyridin-3-yl)-3-methylbutylidene)-oxazolidine-2,4-dione] gave a Ki in experiment [4] of 20 nM. Further, the IC50 in experiment [1] turned out to be 181 nM. On to `CCn1ncc2c(F)cc(-c3[nH]c(=O)c(C(/C=C4\OC(=O)NC4=O)C(C)C)cc3Cl)cc21` (racemic) [Compound #125, 5-(2-(5-chloro-6-(1-ethyl-4-fluoro-1H-indazol-6-yl)-2-oxo-1,2-dihydropyridin-3-yl)-3-methylbutylidene) oxazolidine-2,4-dione], for which the Ki in experiment [4] came out at 487 nM. Moreover, in experiment [1], the IC50 is 658 nM.

On to `CC(C)C(/C=C1\OC(=O)NC1=O)c1ccc(-c2ccc3c(c2)OC(F)(F)O3)[nH]c1=O` (racemic) [Compound #276, (Z)-5-(2-(6-(2,2-difluorobenzo[d][1,3]dioxol-5-yl)-2-oxo-2,3-dihydropyridin-3-yl)-3-methylbutylidene)oxazolidine-2,4-dione], for which affinity in experiment [4] was put at a Ki of 5650 nM. The IC50 in experiment [1] came out at 7600 nM. For the compound `CC(C)[C@@H](c1ccc(-c2ccc3cccc(F)c3c2)[nH]c1=O)[C@H]1OC(=O)NC1=O` (relative stereo) [Compound #59], the affinity in experiment [4] corresponds to a Ki of 85 nM. Further, the 50% inhibitory concentration (IC50) in experiment [1] stood at 611 nM. In the case of `CC(C)[C@H](C[C@@H]1OC(=O)NC1=O)c1ccc(-c2ccc3cccc(F)c3c2)[nH]c1=O` (relative stereo) [Compound #81], the Ki in experiment [4] came out at 6 nM. The IC50 in experiment [1] was 15 nM.

The compound `CCn1ncc2c(F)cc(-c3ccc([C@]4(O)CC[C@H]5C[C@@H]4NC5=O)c(=O)[nH]3)cc21` (stereo in doubt) [Compound #300, 4-(6-(1-ethyl-4-fluoro-1H-indazol-6-yl)-2-oxo-1,2-dihydropyridin-3-yl)-4-hydroxy-6-azabicyclo[3.2.1]octan-7-one] showed a Ki in experiment [4] of 5 nM.

In experiment [4], `CC(=C1OC(=O)NC1=O)C(c1ccc(-c2ccc3cccc(F)c3c2)[nH]c1=O)C(C)C` (stereo not drawn) [Compound 96] showed a Ki of 17 nM. For the same compound, in experiment [1], the half-maximal inhibitory concentration (IC50) was 39 nM.

`O=C1NC(=O)/C(=C\C2(c3ccc(-c4ccc5cccc(F)c5c4)[nH]c3=O)CC2)O1` [Compound #11] came in with a Ki in experiment [4] of 28 nM. Further, the IC50 in experiment [1] came to 55 nM.

Consider `CCn1cc2c(F)c(-c3ccc(C(/C=C4/OC(=O)NC4=O)(CC)CC)c(=O)[nH]3)ccc2n1` [Compound #14], for which the Ki in experiment [4] was more than 10000 nM. Besides, the IC50 in experiment [1] was more than 20000 nM. `CCn1cnc2c(F)c(-c3ccc(C(C=C4OC(=O)NC4=O)C(C)C)c(=O)[nH]3)ccc21` (stereo not drawn) [Compound #90, 5-(2-(6-(1-ethyl-4-fluoro-1H-benzo[d]imidazol-5-yl)-2-oxo-1,2-dihydropyridin-3-yl)-3-methylbutyli-dene)oxazolidine-2,4-dione]: in experiment [4], the Ki worked out at 633 nM. Further, the IC50 in experiment [1] is 5430 nM.

As to `CC(C)C(/C=C1\OC(=O)NC1=O)c1ccc(-c2ccc3cnsc3c2)[nH]c1=O` (stereo not drawn) [Compound #93], the affinity in experiment [4] corresponds to a Ki of 1070 nM. For the same compound, the IC50 in experiment [1] stood at 9940 nM.

`CCN1CCOc2cc(-c3ccc(C(/C=C4\OC(=O)NC4=O)C(C)C)c(=O)[nH]3)ccc21` (stereo not drawn) [Compound #121] came in with a Ki in experiment [4] of 73 nM. In experiment [1], the half-maximal inhibitory concentration (IC50) came out at 363 nM. Regarding `CCn1ncc2c(F)cc(-c3ccc(C(/C=C4\OC(=O)NC4=O)C4CCCCC4)c(=O)[nH]3)cc21` (stereo not drawn) [Compound #127, 5-(2-cyclohexyl-2-(6-(1-ethyl-4-fluoro-1H-indazol-6-yl)-2-oxo-1,2-dihydropyridin-3-yl)ethylidene) oxazolidine-2,4-dione], in experiment [4], the Ki is 46 nM. In experiment [1], the 50% inhibitory concentration (IC50) turned out to be 548 nM.

As for `CCN1CCOc2ccc(-c3ccc(C(/C=C4\OC(=O)NC4=O)C(C)C)c(=O)[nH]3)cc21` (stereo not drawn) [Compound #137], in experiment [4], the Ki came to 54 nM. Moreover, in experiment [1], the half-maximal inhibitory concentration (IC50) was determined as 218 nM.

In experiment [4], `CC(C)C1(c2ccc(-c3ccc4cccc(F)c4c3)[nH]c2=O)C(=O)Nc2nncn21` (stereo not drawn) [Compound #156] gave a Ki of 57 nM. Moreover, the half-maximal inhibitory concentration (IC50) in experiment [1] is 508 nM. On to `O=C1NC(=O)[C@]2(CCC[C@H](c3ccc(-c4ccc5ccccc5c4)[nH]c3=O)C2)O1` [Compound #189, Syn-7-(6-(naphthalen-2-yl)-2-oxo-1,2-dihydropyridin-3-yl)-1-oxa-3-azaspiro[4.5]decane-2,4-dione], for which affinity in experiment [4] was put at a Ki of 16 nM. The half-inhibitory concentration (IC50) in experiment [1] was found to be 109 nM. `CC(C)C(c1ccc(-c2ccc3cccc(F)c3c2)[nH]c1=O)C1OC(=O)NC1=O` (stereo not drawn) [compound 60]: the Ki in experiment [4] was 27 nM. In addition, the concentration for half-maximal inhibition (IC50) in experiment [1] worked out at 92 nM. `CC(C)C(CC1OC(=O)NC1=O)c1ccc(-c2ccc3cccc(F)c3c2)[nH]c1=O` (stereo not drawn) [compound 74] displayed an inhibition constant Ki in experiment [4] of 8 nM. In experiment [1], the IC50 was 27 nM. With `O=C1NC(=O)C2(CCCC(c3ccc(-c4ccc5ccccc5c4)[nH]c3=O)C2)O1` (stereo not drawn) [compound 188, anti-7-(6-(naphthalen-2-yl)-2-oxo-1,2-dihydropyridin-3-yl)-1-oxa-3-azaspiro[4.5]decane-2,4-dione], the Ki in experiment [4] was 15 nM. Also, the concentration for half-maximal inhibition (IC50) in experiment [1] came to 120 nM.
